# Results: US9700533B2, “Maternal chelation for embryo, fetal and infant benefit” (priority 2005, dated 2017)
# Like-named read-outs stand apart in the source and are kept apart here.
# Assays:
# [1] = Case 14
# Protocol: (§1) The terms “diagnostic provocation” and “chelation-provoked urine tests” and related terms refer to a procedure whereby the patient is administered one of more dosages of chelators, after which the patient's urine is collected for a defined period of time. The collected urine is analyzed for metal content, the metal having been removed from the patient's body by the chelators. The results of this procedure can indicate which metals are present in the patient's body and the approximate levels of the metals, which is subsequently used in designing a course of chelation therapy.
# (§2) The metals may be measured with or without prior chelation provocation. The standard values accepted by medical laboratories are measured without chelation provocation. Treatment with chelation medication mobilizes metal stores within in the body to be detected in the urine, thus values obtained post-provocation will be increased.
# [2] = Chelation-provoked urine test, urinary cadmium; type: in vivo, human; conditions: Case 14
# Protocol: as §1, §2
# [3] = Chelation-provoked urine test, urinary uranium; type: in vivo, human
# Protocol: as §1, §2
# [4] = Case 14; remark: listed apart in the source
# Protocol: as §1, §2
# [5] = Chelation-provoked urine test, urinary tin; type: in vivo, human; conditions: Case 14
# Protocol: as §1, §2
# [6] = Chelation-provoked urine test, urinary nickel; type: in vivo, human
# Protocol: as §1, §2
# [7] = Chelation-provoked urine test, urinary lead
# Protocol: as §1, §2
# [8] = not given; remark: listed apart in the source
# [9] = Chelation-provoked urine test, metals revealed (in words)
# Protocol: as §1, §2
# [10] = Chelation-provoked urine test, urinary tungsten; type: in vivo, human; conditions: Case 7; one 300-mg capsule DMPS, 6 hour urine
# Protocol: as §1, §2
# [11] = DMPS provocation October 2003, before treatment
# [12] = DMPS series, follow up October 2005 after oral DMSA and essential daily defense
# [13] = after series of intravenous DMPS chelation treatments October 2003 to May 2004
# [14] = Case 7, one 300-mg capsule DMPS, 6 hour urine
# [15] = Case 14, DMPS provocation October 2003, before treatment
# [16] = Case 14, DMPS series, follow up October 2005 after oral DMSA and essential daily defense
# [17] = Case 14, after series of intravenous DMPS chelation treatments October 2003 to May 2004
# [18] = Case 5, DMPS chelation provocation, before treatment
# [19] = Case 5, DMPS provocation, previously (before treatment)
compound,measurement,setting,value
"O=S(=O)(O)CC(S)CS (stereo not drawn) [DMPS, Dimercaptopropanesulfonic Acid]",urinary arsenic,[1]; [11],159 (normal <50) mcg/g creatinine
same,urinary arsenic,[1]; [12],34 mcg/g creatinine
same,urinary arsenic,[1]; [13],20 mcg/g creatinine
same,urinary cadmium,[2]; [11],0.82 (normal <0.64) mcg/g creatinine
same,urinary cadmium,[2]; [12],0.17 mcg/g creatinine
same,urinary cadmium,[2]; [13],0.16 mcg/g creatinine
same,urinary uranium,[3]; [14],0.034 (normal <0.013)
same,urinary uranium,[3]; [15],0.042 (normal <0.026) mcg/g creatinine
same,urinary uranium,[3]; [16],3 mcg/g creatinine
same,urinary uranium,[3]; [17],0 mcg/g creatinine
same,urinary antimony,[18],0.84 (normal <0.14) mcg/g creatinine
same,"urinary antimony, times normal",[19],6 × normal
same,urinary antimony,[15],0.48 (normal <0.14) mcg/g creatinine
same,urinary antimony,[16],0.18 mcg/g creatinine
same,urinary antimony,[17],0.05 mcg/g creatinine
same,urinary thorium,[4]; [11],0 (normal <0.124) mcg/g creatinine
same,urinary thorium,[4]; [12],0 mcg/g creatinine
same,urinary thorium,[4]; [13],0.019 mcg/g creatinine
same,urinary tin,[5]; [11],10.4 (normal <2.04) mcg/g creatinine
same,urinary tin,[5]; [12],3.03 mcg/g creatinine
same,urinary tin,[5]; [13],0.4 mcg/g creatinine
same,urinary nickel,[6]; [14],132 (normal <9.5)
same,urinary nickel,[6]; [15],9.3 (normal <9.5) mcg/g creatinine
same,urinary nickel,[6]; [16],0.7 mcg/g creatinine
same,urinary nickel,[6]; [17],3.2 mcg/g creatinine
same,urinary lead,[7]; [18],6.39 (normal <1.41) mcg/g creatinine
same,"urinary lead, times normal",[7]; [19],4 × normal
same,urinary lead,[7]; [14],4.6 (normal <1.41)
same,urinary lead,[7]; [15],7.9 (normal <1.41) mcg/g creatinine
same,urinary lead,[7]; [16],2.6 mcg/g creatinine
same,urinary lead,[7]; [17],0.9 mcg/g creatinine
same,urinary mercury,[8]; [18],38.55 (normal <6.97) mcg/g creatinine
same,"urinary mercury, times normal",[8]; [19],5 × normal
same,urinary mercury,[8]; [15],7.3 (normal <2.14) mcg/g creatinine
same,urinary mercury,[8]; [16],4.6 mcg/g creatinine
same,urinary mercury,[8]; [17],6 mcg/g creatinine
same,metals revealed on provocation,"[9]; Case 10, DMPS 300 mg PO x1, 6 hour urine","elevated levels of lead, mercury, aluminum, antimony, cadmium, nickel, tin, tungsten and uranium"
same,metals revealed on provocation,"[9]; Case 12, DMPS 300 mg PO x2, 6 hour urine","marked elevation of nickel as well as abnormally elevation of arsenic, cadmium and lead"
same,urinary tungsten,[10],7.07 (normal <0.34)
